For one test, the target named is HLA-A*0201 (Homo sapiens, UniProt P04439, D140Y/D185E/D98H/E176V/E277Q/G131W/G231S/I119V/I121R/I166T/I218V/L300P/L318F/N151K/N90K/P208A/P217A/Q86G/Q94H/R138H/R169H/T345S). In words: Peptide binding using T2 cells.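 Further: Read-out is peptide-induced stabilization of HLA-A*0201 on the cell surface, reflecting mainly Kon at limiting peptide levels and both Kon and Koff at saturating levels.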 To be noted: half maximal binding of wild-type peptide relative to analog.
The subject of test [1] is T cell lines against natural epitope SSX-241-49. In words: Cross-reactivity and functional avidity: IFN-gamma production by T cell lines raised against natural SSX-2 41-49.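 Further: analogs presented ex vivo by competent APCs to T cells specific for the non-mutated epitope, scored by lowest activating concentration, peak cytokine effect and concentration at that peak.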 In kind it is cell-based, HHD transgenic mice. To be noted: T cells raised to native peptide tested on analogs; footnote * and unit not given.
A further test has as its system 624.38 melanoma cells. In words: Ex vivo cytotoxicity against human tumor cells after boost with SSX-2 analogs. Type of test: in vivo. To be noted: plasmid prime, peptide boost; FIG. 12. Here is the method: Eight groups of mice (n=4) were immunized with plasmid expressing SSX-241-49 natural epitope by direct inoculation into the inguinal lymph nodes with 25 ug in 25 ul of PBS/each lymph node at day 0, 3, 14 and 17. This was followed by two additional peptide boosts (similar amount) at day 28 and 31, using a negative control peptide (Melan A 26-35 “EAA”), natural peptide or analogs as shown in FIG. 9.

For test [2], the system named is target cells coated with natural peptide. In words: In vivo cytotoxicity against splenocytes coated with natural SSX-2 41-49 peptide (CFSE). The arrangement: species or system HHD mice. To be noted: spleen and blood; targets coated with 20 μg/ml and 1 μg/ml natural peptide. Here is the method: Eight groups of mice (n=4) were immunized with plasmid expressing SSX-241-49 natural epitope, by direct inoculation into the inguinal lymph nodes with 25 μg in 25 μl of PBS/each lymph node at day 0, 3, 14 and 17. This was followed by two additional peptide boosts (similar amount) at day 28 and 31, using a negative control peptide (Melan A 26-35 “EAA”), natural peptide or analogs as shown in FIG. 9.
To evaluate the in vivo response against natural peptide, splenocytes were isolated from littermate control HHD mice and incubated with 20 μg/mL or 1 μg/ml of natural peptide for 2 hours. These cells were then stained with CFSE^hi fluorescence (4.0 μM or […] for 15 minutes) and intravenously co-injected into immunized mice with an equal number of control splenocytes stained with CFSE^lo fluorescence (0.4 μM). Eighteen hours later the specific elimination of target cells was measured by removing spleen and PBMC from challenged animals and measuring CFSE fluorescence by flow cytometry. The relative depletion of the populations corresponding to peptide loaded splenocytes was calculated relative to the control (unloaded) population and expressed as % specific lysis. FIG. 10 (spleen) and 11 (blood) show the in vivo cytotoxicity elicited by the regimens described in FIG. 7.

Test [3] concerns native PSMA288-297 peptide. In words: Cross-reactive immunogenicity of PSMA analogs, IFN-gamma ELISPOT. In kind it is in vivo, HHD transgenic mice. As to conditions: peptide plus pI:C intranodal; FIG. 22. Here is the method:
Groups of HHD transgenic mice (n=8) were immunized with peptide (natural epitope PSMA288-297, or analogs bearing substitutions at primary or secondary anchor residues) by direct inoculation into the inguinal lymph nodes, with 25 μg in 25 μl of PBS+12.5 μg of pI:C to each lymph node at day 0, 3, 14 and 17.
Mice were sacrificed at 10 days after the last boost, and splenocytes prepared and assessed for IFN-γ production by ELISPOT analysis. […] At 48 hours after incubation, the assay was developed and the frequency of cytokine-producing T cells that recognized native PSMA288-297 peptide was automatically counted. The data is represented in FIG. 22 as the number of spot forming colonies/well (mean of triplicates±SD). […] To the extent that the poor immunogenicity of the native epitope reflects tolerance, the improved activity of these analogs represents tolerance breaking.

For test [4], the system named is target cells coated with wild-type peptide. In words: In vivo cytotoxicity against wild-type NY-ESO-1 peptide-coated target cells. The arrangement: species or system HHD mice. To be noted: plasmid entrain, peptide amplify; FIGS. 15-16. How it is done:
These cells were then stained with CFSE^hi and CFSE^med fluorescence (4.0 μM or 1 μM, respectively, for 15 minutes) and intravenously co-injected into immunized mice with an equal number of control splenocytes stained with CFSE^lo fluorescence (0.4 μM). Eighteen hours later the specific elimination of target cells was measured by removing the spleens and PBMC from challenged animals and measuring CFSE fluorescence by flow cytometry. The relative depletion of the populations corresponding to peptide loaded splenocytes was calculated relative to the control (unloaded) population and expressed as % specific lysis.

A further test has as its system splenocytes. Description: Ex vivo IFN-gamma production after re-stimulation with wild-type NY-ESO-1157-165 (ELISA). To be noted: 10 μM wild-type peptide, 3 and 6 days; FIG. 17. Type of test: in vivo, mice. On the technique in general: An ELISA detects its analyte on a solid surface through an enzyme-linked reagent.
The subject of test [5] is T cells specific for the wild-type NY-ESO-1157-165 epitope. In words: Cross-reactivity and functional avidity of NY-ESO-1 157-165 analogs (IFN-gamma production ex vivo). Type of test: cell-based, HHD transgenic mice. As to conditions: relative to wild-type peptide; FIG. 13.
Test [6] has as its target T1, HLA-A*0201 class I monomer of the iTopia Epitope Discovery System.
T1 construct: also called A0201 restricted MHC Class 1 molecules; MHC monomer
In words: iTopia affinity assay.

In test [7] the target is T2, HLA-A*0201 on T2 cells (human).
T2 construct: whole, on cells; Class I MHC on the surface of T2 cells, detected with a fluorescent anti-A2 antibody; beta2-microglobulin is not mentioned for this assay; also called MHC class I (A2 allele)
In words: T2 cells, wild-type/analog half-maximal binding.

For test [8], the target named is T2, HLA-A*0201 on T2 cells. In words: T2 cells, wild-type/analog half-maximal binding. This is another data set of the same source.
The target of test [9] is T2, HLA-A*0201 on T2 cells. Description: T2 cells, wild-type/analog half-maximal binding. The source holds these as a separate data set.

Like-named read-outs stand apart in the source and are kept apart here. Numbered stars: 1 amine (or outer) side, 2 acyl side, 3 side chain; on linkers, the order of the positions; unused ones are H or OH. Square brackets hold non-standard residues; d marks the D form. Ends that are not written are not given here. Tyr(Me) = O-methyl-Tyr, COc1ccc(C[C@H](N[*:1])C(=O)[*:2])cc1; Phe(4-NO2) = N[C@@H](Cc1ccc([N+](=O)[O-])cc1)C(=O)O; Bta = N[C@@H](Cc1csc2ccccc12)C(=O)O; Phg = N[C@H](C(=O)O)c1ccccc1; Nle = CCCC[C@H](N)C(=O)O Where only a bound is given, the exact number is not on record here.

With `CC[C@H](C)[C@H](NC(=O)[C@H](Cc1ccc(O)cc1)NC(=O)[C@H](Cc1ccccc1)NC(=O)[C@@H](NC(=O)[C@H](CCCCN)NC(=O)[C@H](CCC(=O)O)NC(=O)[C@H](CO)NC(=O)[C@@H](NC(=O)[C@@H](N)Cc1ccccc1)C(C)C)[C@@H](C)CC)C(=O)O` [SSX2 41-49 (K41F, A42V, V49I)], the “Relative affinity (1/RA)” value at HLA-A*0201 was 1.6. Also, the “Cross-reactivity and fct avidity (native to analogs)*” value in [1] turned out to be 0.3. The “cytotoxicity against human tumor cells expressing natural SSX-2 41-49 epitope” value with 624.38 melanoma cells is on record as “increased cytotoxicity”. For FASEKIFYV [SSX2 41-49 (K41F)], the “Relative affinity (1/RA)” value at HLA-A*0201 worked out at 1.5. The “Cross-reactivity and fct avidity (native to analogs)*” value in [1] is given as 0.3. For the same molecule, the “in vivo cytotoxicity (% specific lysis), in words” value in test [2] is given as “increased activity”. On to GLWSIPVHPI [Peptide P290W], for which, in [3], the “priming of immune response against native PSMA288-297 (IFN-γ ELISPOT), in words” value is recorded as “increased priming”. Take “L158V C165V: NY-ESO-1 157-165 analog with L158V and C165V substitutions (SVLMWITQV; UniProt P78358 157-165, looked up, variant L158V C165V)”: the “in vivo cytotoxicity (% specific lysis), in words” value in test [4] is reported as “effect in the same range with wild-type peptide”. For the same molecule, the “IFN-gamma production upon ex vivo re-stimulation with wild-type peptide” value with splenocytes was “increased amounts of IFN-gamma”. As to “L158V: NY-ESO-1 157-165 analog with L158V substitution (SVLMWITQC; UniProt P78358 157-165, looked up, variant L158V) [Peptide L158V]”, the “activity in cross-reactivity assay (NY-ESO-1 157-165 specific T cells), in words” value (“activity in cross-reactivity assay” below) in test [5] is “partial retention of activity”. With “NY-ESO-1157-166: 10-mer of the wild-type sequence NY-ESO-1 157-166 (SLLMWITQCF; UniProt P78358 157-166, looked up, fragment) [reference compound]”, the “activity in cross-reactivity assay” value in test [5] is “no immunological activity”. Turning to “S157F L158V C165V: NY-ESO-1 157-165 analog with S157F, L158V and C165V substitutions (FVLMWITQV; UniProt P78358 157-165, looked up, variant S157F L158V C165V)”, the “IFN-gamma production upon ex vivo re-stimulation with wild-type peptide” value in the test on splenocytes was “increased amounts of IFN-gamma”. In the case of “S157K L158V C165V: NY-ESO-1 157-165 analog with S157K, L158V and C165V substitutions (KVLMWITQV; UniProt P78358 157-165, looked up, variant S157K L158V C165V)”, the “in vivo cytotoxicity (% specific lysis), in words” value in [4] is given as “effect in the same range with wild-type peptide”. As for “S157Y L158I C165V: NY-ESO-1 157-165 analog with S157Y, L158I and C165V substitutions (YILMWITQV; UniProt P78358 157-165, looked up, variant S157Y L158I C165V)”, in test [5], the “activity in cross-reactivity assay” value is “increased activity relative to the wild-type peptide”. As to “SLLMWITQC [Nyeso-1 157-165, reference compound]”, the “in vivo cytotoxicity (% specific lysis), in words” value in test [4] is given as “variable cytotoxicity”. On to YASEKIFYV-OH [SSX2 41-49 (K41Y)], for which the “Relative affinity (1/RA)” value at HLA-A*0201 came out at 1.7. The “Cross-reactivity and fct avidity (native to analogs)*” value in test [1] was 3. In addition, the “in vivo cytotoxicity (% specific lysis), in words” value in [2] is on record as “increased activity”. For the molecule “{Abu}LPSIPVHPI (XLPSIPVHPI; Abu at position 288; T cell peptide epitope analog) [Peptide G288Abu, PSMA288-297 analog with G288Abu substitution]”, the “priming of immune response against native PSMA288-297 (IFN-γ ELISPOT), in words” value in test [3] is “slightly higher (but significant) activity”. Regarding XLLQHLIGL (P1 = Hse (homoserine)) [PRAME425-433 analog with Hse at P1], in test [6], the “fold difference of affinity (ED50) against the native peptide” value is no more than 3 fold. Regarding [Phg]ASEKIFYV [SSX2 41-49 (K41(Phg))], the “Relative affinity (1/RA)” value in the test with HLA-A*0201 on T2 cells [7] is 2.5 1/RA. [Tyr(Me)]ASEKIFYV [SSX2 41-49 (K41(O-methyl Tyr))]: in the test with HLA-A*0201 on T2 cells [7], the “Relative affinity (1/RA)” value is 0.8 1/RA.

Regarding FLLQHLIG[Nle] (the second is probably S425T L433Nle) [PRAME425-433 S425F L433Nle analog], the “fold reduction of ED50 against the native peptide” value in test [6] was greater than 4 fold. Take TMLQHLIG[Nle] [PRAME425-433 S425T L426M L433Nle analog]: the binding result in [6] was “binds”. With FMLQHLIG[Nle] [PRAME425-433 analog with Phe at P1, Met at P2 and Nle at PΩ], the binding result in test [6] was “binds”. On to FVSEKIFYV [SSX2 41-49 (K41F, A42V)], for which the “Relative affinity (1/RA)” value with HLA-A*0201 on T2 cells [8] was 3.1 1/RA. Same read-out and setting: next, YLSEKIFYV [SSX2 41-49 (K41Y, A42L)]: 1.2 1/RA.

In the case of YASEKIFYV [SSX2 41-49 (K41Y)], the “Relative affinity (1/RA)” value with HLA-A*0201 on T2 cells [7] was 1.7 1/RA. On to KMSEKIFYV [SSX2 41-49 (A42M)], for which the “Relative affinity (1/RA)” value with HLA-A*0201 on T2 cells [9] is 1.7 1/RA.

With YMSEKIFYV [SSX2 41-49 (K41Y, A42M)], the “Relative affinity (1/RA)” value with HLA-A*0201 on T2 cells [8] is 0.6 1/RA.

As to FISEKIFYV [SSX2 41-49 (K41F, A42I)], the “Relative affinity (1/RA)” value with HLA-A*0201 on T2 cells [8] is 2.7 1/RA. On the same count and under the same terms, the same measure for WMSEKIFYV [SSX2 41-49 (K41W, A42M)]: 2.9 1/RA.

With KISEKIFYV [SSX2 41-49 (A42I)], the “Relative affinity (1/RA)” value with HLA-A*0201 on T2 cells [9] is 1.7 1/RA.

Turning to FASEKIFYV [SSX2 41-49 (K41F)], the “Relative affinity (1/RA)” value with HLA-A*0201 on T2 cells [7] is 1.5 1/RA. For the molecule WLSEKIFYV [SSX2 41-49 (K41W, A42L)], in the test with HLA-A*0201 on T2 cells [8], the “Relative affinity (1/RA)” value was 3.3 1/RA. With WVSEKIFYV [SSX2 41-49 (K41W, A42V)], the “Relative affinity (1/RA)” value with HLA-A*0201 on T2 cells [8] is 3 1/RA. [Bta]ASEKIFYV [SSX2 41-49 (K41(b-(3-benzothienyl)Ala))]: the “Relative affinity (1/RA)” value with HLA-A*0201 on T2 cells [7] was 0.6 1/RA.

B1: SSX2 41-49 (K41(Phe-4NO2)) (peptide)
peptide: [Phe(4-NO2)]ASEKIFYV
notes: also called para-nitrophenylalanine analog
For the molecule B1, the “Relative affinity (1/RA)” value with HLA-A*0201 on T2 cells [7] was 1.1 1/RA.
